These results are taken from PubChem BioAssay (NCI).

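96-well plates; 48 h exposure; 5 concentrations. Endpoints by linear interpolation between flanking doses. Not reached: highest tested concentration assigned. TGI: concentration producing complete growth inhibition.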 Where a SMILES comes first, the peptide text is derived from it. [ ]: non-standard residue; d: D form. The star is where a group is joined. Bn2Val = CC(C)[C@@H](C(=O)*)N(Cc1ccccc1)Cc1ccccc1; NH(3,4-diMeO-benzyl) = COc1ccc(CN*)cc1OC; NMeV = CN[C@H](C(=O)O)C(C)C

What all share (experiment): NCI-60 cell line screen, 48 h
For test [1], the system named is UACC-257 melanoma.
Test [2] has as its system HT29 colon.
Test [3] relates to TK-10 renal.
Test [4] relates to NCI-H23 lung.
For test [5], the system named is BT-549 breast.
The test system of test [6] is EKVX NSCLC.
Test [7] concerns RXF 393 renal.
The subject of test [8] is HL-60(TB) leukemia.
In test [9] the test system is OVCAR-8 ovarian.
Test [10] relates to CAKI-1 renal.
Test [11] has as its system SNB-75 CNS.
In test [12] the test system is SK-MEL-2 melanoma.
Test [13] concerns KM12 colon.
The subject of test [14] is HS 578T breast.
Test [15] relates to MOLT-4 leukemia.
Test [16] concerns MALME-3M melanoma.
The subject of test [17] is NCI-H460 lung.
Test [18] concerns DU-145 prostate.
Test [19] has as its system RPMI-8226 leukemia.

In the case of `COc1ccc(CNC(=O)[C@@H]2CCCN2C(=O)[C@@H]2CCCN2C(=O)[C@H](C(C)C)N(C)C(=O)[C@@H](NC(=O)[C@H](C(C)C)N(Cc2ccccc2)Cc2ccccc2)C(C)C)cc1OC` (Bn2Val-V[NMeV]PP-{NH(3,4-diMeO-benzyl)}), the TGI in [1] was determined as 42.9 µM; in [2], 20.7 µM; in test [3] it was 29.5 µM; in test [4], 38.6 µM; in test [5], 34.5 µM; in test [6], 26.7 µM. The TGI in [7] amounted to 26.7 µM; in test [8], 6.17 µM; in [9] it was 30.3 µM; in test [10], 38.1 µM; in test [11] it was 25.7 µM; in [12] it was 34.5 µM. The TGI in test [13] was 51.5 µM; in test [14], greater than 100 µM; in [15] it was 72.2 µM; in test [16], 46.2 µM; in test [17] it was greater than 60.5 µM; in test [18], 30.1 µM.

As for `Oc1cccc2c1[nH]c1c(C3=C[C@@]4(O)CC/C=C\CCCCN5CC[C@@H]3[C@]3(CC6/C=C\CCCCN6[C@H]34)C5)nccc12` (some centres undefined), the TGI in test [1] was found to be 5.79 µM; in [2], 2.25 µM; in test [3] it was 5.56 µM; in test [4], 2.56 µM; in test [5], 4.37 µM; in test [6] it was 4.87 µM. The TGI in test [8] was 2.59 µM; in test [9], 2.88 µM; in [10] it was 4.43 µM; in test [11], 3.86 µM; in test [12] it was 2.97 µM; in test [13], 2.99 µM. Moreover, the TGI turned out to be 3.69 µM in test [14]; 4.95 µM in test [15]; 2.6 µM in test [19]; 3.02 µM in [16]; 2.19 µM in test [17]; 4.64 µM in [18].

Take `CCn1c2ccccc2c2cc(NC(=O)c3c(NCCNCCO)nc(=O)[nH]c3C)ccc21`: the TGI in [1], in test [2], in test [3], in test [4], in test [5] and in test [6] was greater than 100 µM in each case. For the same molecule, the TGI in test [7], in test [8], in test [9], in test [10], in test [11] and in test [13] was greater than 100 µM each time. Moreover, the TGI in test [14], in test [15], in test [16], in test [17] and in test [18] was greater than 100 µM throughout.

As for `COC(=O)c1ccccc1C1CN=NC12Cc1cc(C)cc(C)c1C2=O` (centres undefined), the TGI in test [1], in test [2], in [3], in [4], in [5] and in test [6] was greater than 100 µM in each case. The TGI was greater than 100 µM in test [7]; 51.7 µM in test [8]; greater than 100 µM in test [9]; greater than 100 µM in [10]; greater than 100 µM in test [11]; greater than 100 µM in [12]. The TGI in [13], in test [14], in test [15], in test [16], in test [17] and in test [18] was greater than 100 µM in each case.

For the molecule `C=C(CN)CO[Si](C)(C)C(C)(C)C`, the TGI in [1], in test [2], in test [3], in test [4], in test [5] and in test [6] was greater than 100 µM each time. Also, the TGI in test [8], in test [9], in test [10], in test [11], in test [12] and in test [13] was greater than 100 µM each time. The TGI in [14], in [15], in test [19], in test [16], in test [17] and in test [18] was greater than 100 µM each time.

As for `CC(=O)CCC[C@H](C)[C@@H](O)[C@@H]1O[C@H]([C@@]2(C)CCC(=O)O2)C[C@H]1C(=O)O`, the TGI in [1], in test [2], in test [3], in [4], in [5] and in [6] was greater than 100 µM throughout. Moreover, the TGI in [7], in [9], in test [10], in [11], in test [12] and in test [13] was greater than 100 µM throughout. For the same molecule, the TGI in [14], in test [15], in test [19], in [17] and in test [18] was greater than 100 µM each time.

On to `CC1=C[C@@H]2[C@@H](CC(CO)=C[C@H]3[C@@H]4C(C)(C)[C@]4(OCC(C)C)[C@H](OCC(C)C)[C@@H](C)[C@]23O)C1=O`, for which the TGI is 3.72 µM in test [1]; 2.87 µM in test [2]; greater than 5.97 µM in [3]; 5.81 µM in [4]; 2.65 µM in test [5]; greater than 5.64 µM in test [6]. Also, the TGI was 3.69 µM in test [7]; greater than 5.52 µM in test [8]; greater than 6.08 µM in test [9]; 3.69 µM in test [10]; greater than 8.32 µM in test [11]; greater than 6.43 µM in test [12]. The TGI in [13] was greater than 5.69 µM; in test [14], 2.71 µM; in test [15], 2.96 µM; in test [16], 2.36 µM; in test [17], greater than 8.32 µM; in test [18], greater than 8.32 µM.
